Patent US20260116920A1, “HUMAN TRANSFERRIN RECEPTOR BINDING PEPTIDE” (PEPTIDREAM INC., priority 2021, published 2026)
Starred links: 1 amine or outer side, 2 acyl side, 3 side chain; linkers in the order of their positions; H or OH if unused. Positions of bridges follow the written chain, without caps; N, C: chain ends. Non-standard residues stand in square brackets, D forms with d. Residues, ends and D or L forms follow the SMILES beside them. Groups on a side chain read outwards from the residue. *: point of attachment. Nle(6-morpholino) = N[C@@H](CCCCN1CCOCC1)C(=O)O; Trp(7-aza) = N[C@@H](Cc1c[nH]c2ncccc12)C(=O)O; NH(CH2CH2O)8Me = COCCOCCOCCOCCOCCOCCOCCOCCN*; NMePhe(3-Cl) = CN[C@@H](Cc1cccc(Cl)c1)C(=O)O; Piperazinyl(4-CH2COOH) = O=C(O)CN1CCN(*)CC1; 3Pal(6-NH2) = Nc1ccc(C[C@H](N)C(=O)O)cn1; NMeY = CN[C@@H](Cc1ccc(O)cc1)C(=O)O; 4Pal = N[C@@H](Cc1ccncc1)C(=O)O; PEG4 = NCCOCCOCCOCCOCCC(=O)O; Carboxymethyl = O=C(O)C*; CO = O=C([*:1])[*:2]

Biological target: T1, human transferrin receptor (hTfR) (Homo sapiens, UniProt P02786)
T1 construct: made in house
Experiment: Evaluation of molecular interaction between transferrin receptor (hTfR) and peptide using surface plasmon resonance (SPR)
Assay type: binding
Settings: peptide with linker, surface plasmon resonance; read-out: SPR (KD class for binding to hTfR)
Method in brief: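 Recombinant hTfR dimer (0.5 μM) immobilized on Ni-loaded NTA chip via EDC/NHS, ethanolamine-capped. Peptides at 5–100 nM in HEPES pH 8.0 buffer with 150 mM NaCl, 0.05% Tween 20, 0.1% BSA, 1.0% DMSO, flowed by single-cycle kinetics; KD from least-squares fit of sensorgrams.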

T1 sequence (P02786 89-760 limits assumed): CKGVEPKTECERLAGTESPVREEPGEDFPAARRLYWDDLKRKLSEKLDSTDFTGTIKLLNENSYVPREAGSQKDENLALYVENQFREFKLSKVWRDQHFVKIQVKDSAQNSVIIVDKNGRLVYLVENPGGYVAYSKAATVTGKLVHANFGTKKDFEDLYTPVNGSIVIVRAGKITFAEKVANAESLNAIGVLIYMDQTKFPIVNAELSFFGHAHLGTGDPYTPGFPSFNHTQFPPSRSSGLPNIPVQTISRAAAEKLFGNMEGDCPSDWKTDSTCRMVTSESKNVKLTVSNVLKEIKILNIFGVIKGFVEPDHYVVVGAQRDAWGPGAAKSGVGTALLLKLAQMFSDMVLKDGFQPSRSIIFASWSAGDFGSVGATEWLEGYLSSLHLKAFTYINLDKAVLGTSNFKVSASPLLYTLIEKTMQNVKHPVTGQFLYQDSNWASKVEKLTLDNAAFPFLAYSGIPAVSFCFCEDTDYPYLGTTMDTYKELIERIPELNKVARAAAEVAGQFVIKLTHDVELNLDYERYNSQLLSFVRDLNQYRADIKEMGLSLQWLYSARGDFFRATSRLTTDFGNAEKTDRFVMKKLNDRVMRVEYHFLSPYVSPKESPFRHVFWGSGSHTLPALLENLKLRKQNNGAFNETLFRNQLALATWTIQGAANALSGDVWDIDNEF

| Kd | Structure (SMILES) |
| --- | --- |
| 0.1 to 1 µM | CC[C@H](C)[C@@H]1NC(=O)[C@H](Cc2ccc(OCC(=O)O)cc2)NC(=O)[C@H](Cc2ccc(O)cc2)NC(=O)[C@H](CC(N)=O)NC(=O)[C@H](Cc2c[nH]c3ncccc23)NC(=O)[C@H](C(C)C)NC(=O)[C@H](Cc2cccc(Cl)c2)N(C)C(=O)[C@H](C(C)C)NC(=O)[C@H](C)NC(=O)CSC[C@@H](C(=O)NCCOCCOCCOCCOCCC(N)=O)NC(=O)[C@H](Cc2ccc(O)cc2)N(C)C(=O)[C@H](CCC(=O)NCCOCCOCCOCCOCCOCCOCCOCCOC)NC(=O)[C@H](CCCCN2CCOCC2)NC(=O)[C@H](CCC(=O)NCCOCCOCCOCCOCCOCCOCCOCCOC)NC(=O)[C@H]([C@@H](C)CC)NC1=O [compound 234] ({CH2CO}-AV[NMePhe(3-Cl)]V[Trp(7-aza)]NYY(Carboxymethyl)IIE(NH(CH2CH2O)8Me)[Nle(6-morpholino)]E(NH(CH2CH2O)8Me)[NMeY]C[PEG4]-NH2; thioether N-15) |
| 0.001 to 0.1 µM | CC[C@H](C)[C@@H]1NC(=O)[C@H](Cc2ccc(OC)cc2)NC(=O)[C@H](Cc2ccc(O)cc2)NC(=O)[C@H](CC(N)=O)NC(=O)[C@H](Cc2c[nH]c3ncccc23)NC(=O)[C@H](C(C)C)NC(=O)[C@H](Cc2cccc(Cl)c2)N(C)C(=O)[C@H](C(C)C)NC(=O)[C@H](C)NC(=O)CSC[C@@H](C(=O)NCCOCCOCCOCCOCCC(N)=O)NC(=O)[C@H](Cc2ccc(O)cc2)N(C)C(=O)[C@H](CCC(=O)NCCOCCOCCOCCOCCOCCOCCOCCOC)NC(=O)[C@H](CCCCN2CCOCC2)NC(=O)[C@H](CCC(=O)NCCOCCOCCOCCOCCOCCOCCOCCOC)NC(=O)[C@H]([C@@H](C)CC)NC1=O [compound 235] ({CH2CO}-AV[NMePhe(3-Cl)]V[Trp(7-aza)]NYY(Me)IIE(NH(CH2CH2O)8Me)[Nle(6-morpholino)]E(NH(CH2CH2O)8Me)[NMeY]C[PEG4]-NH2; thioether N-15) |
| 0.001 to 0.1 µM | CC[C@H](C)[C@@H]1NC(=O)[C@H](Cc2ccc(OC)cc2)NC(=O)[C@H](Cc2ccc(N)nc2)NC(=O)[C@H](CC(N)=O)NC(=O)[C@H](Cc2c[nH]c3ncccc23)NC(=O)[C@H](C(C)C)NC(=O)[C@H](Cc2cccc(Cl)c2)N(C)C(=O)[C@H](C(C)C)NC(=O)[C@H](C)NC(=O)CSC[C@@H](C(=O)NCCOCCOCCOCCOCCC(N)=O)NC(=O)[C@H](Cc2ccc(O)cc2)N(C)C(=O)[C@H](Cc2ccncc2)NC(=O)[C@H](CCCCN2CCOCC2)NC(=O)[C@H](CCC(=O)NCCOCCOCCOCCOCCOCCOCCOCCOC)NC(=O)[C@H]([C@@H](C)CC)NC1=O [compound 236] ({CH2CO}-AV[NMePhe(3-Cl)]V[Trp(7-aza)]N[3Pal(6-NH2)]Y(Me)IIE(NH(CH2CH2O)8Me)[Nle(6-morpholino)][4Pal][NMeY]C[PEG4]-NH2; thioether N-15) |
| 0.001 to 0.1 µM | CC[C@H](C)[C@@H]1NC(=O)[C@H](Cc2ccc(OC)cc2)NC(=O)[C@H](Cc2ccc(N)nc2)NC(=O)[C@H](CC(N)=O)NC(=O)[C@H](Cc2c[nH]c3ncccc23)NC(=O)[C@H](C(C)C)NC(=O)[C@H](Cc2cccc(Cl)c2)N(C)C(=O)[C@H](C(C)C)NC(=O)[C@H](C)NC(=O)CSC[C@@H](C(=O)NCCOCCOCCOCCOCCC(N)=O)NC(=O)[C@H](Cc2ccc(O)cc2)N(C)C(=O)[C@H](Cc2ccncc2)NC(=O)[C@H](CCCCNC(=O)N2CCN(CC(=O)O)CC2)NC(=O)[C@H](CCC(=O)NCCOCCOCCOCCOCCOCCOCCOCCOC)NC(=O)[C@H]([C@@H](C)CC)NC1=O [compound 237] ({CH2CO}-AV[NMePhe(3-Cl)]V[Trp(7-aza)]N[3Pal(6-NH2)]Y(Me)IIE(NH(CH2CH2O)8Me)K([CO-Piperazinyl(4-CH2COOH)])[4Pal][NMeY]C[PEG4]-NH2; thioether N-15) |
